Data published in US20240158446A1, “CYCLIC COMPOUND HAVING SELECTIVE INHIBITORY ACTION ON KRAS OVER HRAS AND NRAS” (CHUGAI SEIYAKU KABUSHIKI KAISHA, priority 2021, published 2024).
Where a SMILES comes first, the peptide text is derived from it. Bridges are numbered along the chain shown (N, C = ends). [ ]: non-standard residue; d: D form. The star is where a group is joined. hPhe(3,5-F2-4-CF3) = N[C@@H](CCc1cc(F)c(C(F)(F)F)c(F)c1)C(=O)O; hPhe(3-Cl-4-CF3) = N[C@@H](CCc1ccc(C(F)(F)F)c(Cl)c1)C(=O)O; NPrPhe(4-CF3) = CCCN[C@@H](Cc1ccc(C(F)(F)F)cc1)C(=O)O; NMeGly(cPent) = CN[C@H](C(=O)O)C1CCCC1; Pro(4,4-F2) = O=C(O)[C@@H]1CC(F)(F)CN1; Pro(4S-Me) = C[C@@H]1CN[C@H](C(=O)O)C1; NMeF = CN[C@@H](Cc1ccccc1)C(=O)O; NMeD = CN[C@@H](CC(=O)O)C(=O)O; NMeL = CN[C@@H](CC(C)C)C(=O)O; αMeS = C[C@](N)(CO)C(=O)O; Morpholide = C1CN(*)CCO1; Ac5c = NC1(C(=O)O)CCCC1; Aze = O=C(O)[C@@H]1CCN1; Ac4c = NC1(C(=O)O)CCC1; Sar = CNCC(=O)O

Experiments:
[1] = biological target: GDP-bound HRAS wild-type protein (Homo sapiens, UniProt P01112); experiment: Binding to HRAS by surface plasmon resonance (SPR), Single Cycle Kinetics; conditions: SPR, GDP-bound HRAS wild-type protein vs GDP-bound KRAS wild-type protein
[2] = biological target: GDP-bound NRAS wild-type protein (Homo sapiens, UniProt P01111); experiment: Binding to NRAS by surface plasmon resonance (SPR), Single Cycle Kinetics; conditions: SPR, GDP-bound NRAS wild-type protein vs GDP-bound KRAS wild-type protein
[3] = system: human lung cancer strain NCI-H441;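 also: cell proliferation inhibition after four days measured by CellTiter-Glo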

Sequence of GDP-bound NRAS wild-type protein (P01111 whole entry): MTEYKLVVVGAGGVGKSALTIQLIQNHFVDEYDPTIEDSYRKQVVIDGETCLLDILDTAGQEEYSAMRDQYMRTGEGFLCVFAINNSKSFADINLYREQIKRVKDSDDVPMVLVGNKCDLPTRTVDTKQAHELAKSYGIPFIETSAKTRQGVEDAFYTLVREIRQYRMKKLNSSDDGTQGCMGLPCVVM
Sequence of GDP-bound HRAS wild-type protein (P01112 whole entry): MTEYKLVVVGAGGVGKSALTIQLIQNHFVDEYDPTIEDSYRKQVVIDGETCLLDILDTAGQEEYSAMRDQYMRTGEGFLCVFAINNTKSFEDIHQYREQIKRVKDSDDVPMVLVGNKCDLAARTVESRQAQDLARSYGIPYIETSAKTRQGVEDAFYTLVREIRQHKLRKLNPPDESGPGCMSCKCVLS

Row | SMILES | HRAS/KRAS (ratio of KD value with respect to HRAS to KD value with respect to KRAS) [1] | NRAS/KRAS (ratio of KD value with respect to NRAS to KD value with respect to KRAS) [2] | IC50 [3] [nM] | HRAS/KRAS (ratio of KD value for HRAS to KD value for KRAS) [1] | NRAS/KRAS (ratio of KD value for NRAS to KD value for KRAS) [2]
1 | CCCN1C(=O)CN(C)C(=O)[C@@H]2CCN2C(=O)[C@H]([C@@H](C)CC)NC(=O)[C@H](CC(C)C)N(C)C(=O)C[C@@H](C(=O)N(C)C)N(C)C(=O)[C@H](C2CCCC2)N(C)C(=O)C2(CCCC2)NC(=O)[C@@H]2CC(F)(F)CN2C(=O)[C@H](CCc2ccc(C(F)(F)F)c(Cl)c2)NC(=O)CN(C)C(=O)[C@@H]1Cc1ccc(C(F)(F)F)cc1 [PP0431] ([NMeL]I[Aze][Sar][NPrPhe(4-CF3)][Sar][hPhe(3-Cl-4-CF3)][Pro(4,4-F2)][Ac5c][NMeGly(cPent)][NMeD]-NMe2; lactam N-11) | C (A compound having a KD ratio of 0.1 or more and less than 3 is denoted as C) | B (a compound having 3 or more and less than 10 is denoted as B) | 9.9 |  | 
2 | CCCN1C(=O)CN(C)C(=O)[C@@H]2CCN2C(=O)[C@H]([C@@H](C)CC)NC(=O)[C@H](CC(C)C)N(C)C(=O)C[C@@H](C(=O)N2CCOCC2)NC(=O)[C@H](C2CCCC2)N(C)C(=O)C2(CCC2)NC(=O)[C@@H]2CC(F)(F)CN2C(=O)[C@H](CCc2ccc(C(F)(F)F)c(Cl)c2)NC(=O)CN(C)C(=O)[C@@H]1Cc1ccc(C(F)(F)F)cc1 [PP0340] ([NMeL]I[Aze][Sar][NPrPhe(4-CF3)][Sar][hPhe(3-Cl-4-CF3)][Pro(4,4-F2)][Ac4c][NMeGly(cPent)]D-Morpholide; lactam N-11) |  |  | 177 | B (a compound having 3 or more and less than 10 is denoted as B) | B (a compound having 3 or more and less than 10 is denoted as B)
3 | CCCN1C(=O)[C@@H]2CCN2C(=O)[C@H](Cc2ccccc2)N(C)C(=O)[C@H]([C@@H](C)CC)NC(=O)[C@H](CC(C)C)N(C)C(=O)C[C@@H](C(=O)N2CCOCC2)N(C)C(=O)[C@H](C2CCCC2)N(C)C(=O)C2(CCCC2)NC(=O)[C@@H]2CCCN2C(=O)[C@H](CCc2ccc(C(F)(F)F)c(Cl)c2)NC(=O)CN(C)C(=O)[C@@H]1Cc1ccc(C(F)(F)F)cc1 [PP0209] ([NMeL]I[NMeF][Aze][NPrPhe(4-CF3)][Sar][hPhe(3-Cl-4-CF3)]P[Ac5c][NMeGly(cPent)][NMeD]-Morpholide; lactam N-11) |  |  | 569 | C (A compound having a KD ratio of 0.1 or more and less than 3 is denoted as C) | C (A compound having a KD ratio of 0.1 or more and less than 3 is denoted as C)
4 | CCCN1C(=O)CN(C)C(=O)[C@@H]2CCN2C(=O)[C@H]([C@@H](C)CC)NC(=O)[C@H](CC(C)C)N(C)C(=O)C[C@@H](C(=O)N2CCOCC2)N(C)C(=O)[C@H](C2CCCC2)N(C)C(=O)C2(CCCC2)NC(=O)[C@@H]2CCN2C(=O)[C@H](CCc2ccc(C(F)(F)F)c(Cl)c2)NC(=O)CN(C)C(=O)[C@@H]1Cc1ccc(C(F)(F)F)cc1 [PP0307] ([NMeL]I[Aze][Sar][NPrPhe(4-CF3)][Sar][hPhe(3-Cl-4-CF3)][Aze][Ac5c][NMeGly(cPent)][NMeD]-Morpholide; lactam N-11) |  |  | 205 | B (a compound having 3 or more and less than 10 is denoted as B) | B (a compound having 3 or more and less than 10 is denoted as B)
5 | CCCN1C(=O)CN(C)C(=O)[C@@H]2CCN2C(=O)[C@H]([C@@H](C)CC)NC(=O)[C@H](CC(C)C)N(C)C(=O)C[C@@H](C(=O)N2CCOCC2)N(C)C(=O)[C@H](C2CCCC2)N(C)C(=O)[C@](C)(COC)NC(=O)[C@@H]2CCCN2C(=O)[C@H](CCc2cc(F)c(C(F)(F)F)c(F)c2)NC(=O)CN(C)C(=O)[C@@H]1Cc1ccc(C(F)(F)F)cc1 [PP0779] ([NMeL]I[Aze][Sar][NPrPhe(4-CF3)][Sar][hPhe(3,5-F2-4-CF3)]P[αMeS](Me)[NMeGly(cPent)][NMeD]-Morpholide; lactam N-11) | B (a compound having 3 or more and less than 10 is denoted as B) | B (a compound having 3 or more and less than 10 is denoted as B) | 364 |  | 
6 | CCO[C@@H]1C[C@H]2C(=O)NC3(CCC3)C(=O)N(C)[C@@H](C3CCCC3)C(=O)N(C)[C@H](C(=O)N(C)C)CC(=O)N(C)[C@@H](CC3CCCC3)C(=O)N[C@@H]([C@@H](C)CC)C(=O)N(C)CC(=O)N(C)[C@H]3CCCCCN(C3=O)[C@@H](Cc3ccc(C(F)(F)F)cc3)C(=O)N(C)CC(=O)N[C@@H](CCc3cc(F)c(C(F)(F)F)c(F)c3)C(=O)N2C1 [PP0670] | B (a compound having 3 or more and less than 10 is denoted as B) | B (a compound having 3 or more and less than 10 is denoted as B) | 11.3 |  | 
7 | CCCN1C(=O)CN(C)C(=O)[C@@H]2CCN2C(=O)[C@H]([C@@H](C)CC)NC(=O)[C@H](CC(C)C)N(C)C(=O)C[C@@H](C(=O)N2CCOCC2)N(C)C(=O)[C@H](C2CCCC2)N(C)C(=O)C2(CCCC2)NC(=O)[C@@H]2C[C@H](C)CN2C(=O)[C@H](CCc2ccc(C(F)(F)F)c(Cl)c2)NC(=O)CN(C)C(=O)[C@@H]1Cc1ccc(C(F)(F)F)cc1 [PP0453] ([NMeL]I[Aze][Sar][NPrPhe(4-CF3)][Sar][hPhe(3-Cl-4-CF3)][Pro(4S-Me)][Ac5c][NMeGly(cPent)][NMeD]-Morpholide; lactam N-11) | C (A compound having a KD ratio of 0.1 or more and less than 3 is denoted as C) | B (a compound having 3 or more and less than 10 is denoted as B) | 20.3 |  | 
8 | CCO[C@@H]1C[C@H]2C(=O)NC3(CCC3)C(=O)N(C)[C@@H](C3CCCC3)C(=O)N(CCC3CCCC3)[C@H](C(=O)N3CCOCC3)CC(=O)N(C)[C@@H](CC(C)C)C(=O)N[C@@H]([C@@H](C)CC)C(=O)N(C)CC(=O)N(C)[C@H]3CCCCCN(C3=O)[C@@H](Cc3ccc(C(F)(F)F)cc3)C(=O)N(C)CC(=O)N[C@@H](CCc3cc(F)c(C(F)(F)F)c(F)c3)C(=O)N2C1 [PP0641] | A (a compound having 10 or more and less than 20 is denoted as A) | A (a compound having 10 or more and less than 20 is denoted as A) | > 1300 |  | 
9 | CCCOC[C@H]1C(=O)N[C@@H]([C@@H](C)CC)C(=O)N(C)CC(=O)N(C)[C@H]2C/C=C\CCN(C2=O)[C@@H](Cc2ccc(C)cc2)C(=O)N(C)CC(=O)N[C@@H](CCc2ccc(C(F)(F)F)c(Cl)c2)C(=O)N2C[C@H](CC)C[C@H]2C(=O)NC2(CC(C)(C)C2)C(=O)N(C)[C@@H](C2CCCC2)C(=O)N(C)[C@H](C(=O)N(C)C)CC(=O)N1C [PP2235] |  |  | 22.1 | A (a compound having 10 or more and less than 20 is denoted as A) | A (a compound having 10 or more and less than 20 is denoted as A)
10 | CC[C@H](C)[C@@H]1NC(=O)[C@H](CC(C)C)N(C)C(=O)C[C@@H](C(=O)N2CCOCC2)N(C)C(=O)[C@H](C2CCCC2)N(C)C(=O)C2(CCCC2)NC(=O)[C@@H]2CCCN2C(=O)[C@H](CCc2ccc(C(F)(F)F)c(Cl)c2)NC(=O)CN(C)C(=O)[C@H](Cc2ccccc2)N2CCCCC[C@@H](C2=O)N(C)C(=O)CN(C)C1=O [PP0611] | B (a compound having 3 or more and less than 10 is denoted as B) | B (a compound having 3 or more and less than 10 is denoted as B) | 88.9 |  | 
11 | CC[C@H](C)[C@@H]1NC(=O)[C@H](CC(C)C)N(C)C(=O)C[C@@H](C(=O)N2CCOCC2)N(C)C(=O)[C@H](C2CCCC2)N(C)C(=O)C2(CCCC2)NC(=O)[C@@H]2CCCN2C(=O)[C@H](CCc2ccc(C(F)(F)F)c(Cl)c2)NC(=O)CN(C)C(=O)[C@H](Cc2ccc(C)cc2)N2CC=CC[C@@H](C2=O)N(C)C(=O)CN(C)C1=O [PP0460] | C (A compound having a KD ratio of 0.1 or more and less than 3 is denoted as C) | C (A compound having a KD ratio of 0.1 or more and less than 3 is denoted as C) | 5.4 |  | 
12 | CCO[C@@H]1C[C@H]2C(=O)NC3(CCC3)C(=O)N(C)[C@@H](C3CCCC3)C(=O)N(C)[C@H](C(=O)N3CCOCC3)CC(=O)N(C)[C@@H](COCC(F)(F)F)C(=O)N[C@@H]([C@@H](C)CC)C(=O)N(C)CC(=O)N(C)[C@H]3CCCCCN(C3=O)[C@@H](Cc3ccc(C(F)(F)F)cc3)C(=O)N(C)CC(=O)N[C@@H](CCc3cc(F)c(C(F)(F)F)c(F)c3)C(=O)N2C1 [PP0853] |  |  | 24.3 | B (a compound having 3 or more and less than 10 is denoted as B) | B (a compound having 3 or more and less than 10 is denoted as B)
13 | CCCOC[C@H]1C(=O)N[C@@H]([C@@H](C)CC)C(=O)N(C)CC(=O)N(C)[C@H]2C/C=C\CCN(C2=O)[C@@H](Cc2ccc(C)cc2)C(=O)N(C)CC(=O)N[C@@H](CCc2cc(F)c(C(F)(F)F)c(F)c2)C(=O)N2C[C@H](CCC)C[C@H]2C(=O)NC2(CCC2)C(=O)N(C)[C@@H](C2CCCC2)C(=O)N(C)[C@H](C(=O)N(C)C)CC(=O)N1C [PP2232] |  |  | 18.7 | A (a compound having 10 or more and less than 20 is denoted as A) | A (a compound having 10 or more and less than 20 is denoted as A)
